Laboratory results reported in PubChem BioAssay (NCI).
“And” between values parts separate entries of the source, which are not always exact repeats. Equal values may be shown once.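 Exposure lasted 48 hours, with cells grown in 96-well plates and compounds tested at five concentrations. GI50 = concentration required for 50% inhibition of growth. The concentration for full growth arrest is given as TGI.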

Key:
Experiment in all cases: growth of human tumour cells (NCI), 48 h
786-0 renal = tested on: 786-0 renal
SK-MEL-5 melanoma = tested on: SK-MEL-5 melanoma
OVCAR-8 ovarian = tested on: OVCAR-8 ovarian
SNB-75 CNS = tested on: SNB-75 CNS
SK-MEL-2 melanoma = tested on: SK-MEL-2 melanoma
SNB-19 CNS = tested on: SNB-19 CNS
NCI-H226 lung = tested on: NCI-H226 lung
OVCAR-3 ovarian = tested on: OVCAR-3 ovarian
RXF 393 renal = tested on: RXF 393 renal
A498 renal = tested on: A498 renal

| SMILES | GI50 (786-0 renal) | TGI (786-0 renal) | GI50 (SK-MEL-5 melanoma) | TGI (SK-MEL-5 melanoma) | GI50 (OVCAR-8 ovarian) | TGI (OVCAR-8 ovarian) | GI50 (SNB-75 CNS) | TGI (SNB-75 CNS) | GI50 (SK-MEL-2 melanoma) | TGI (SK-MEL-2 melanoma) | GI50 (SNB-19 CNS) | TGI (SNB-19 CNS) | GI50 (NCI-H226 lung) [µM] | TGI (NCI-H226 lung) [µM] | GI50 (OVCAR-3 ovarian) | TGI (OVCAR-3 ovarian) | GI50 (RXF 393 renal) | TGI (RXF 393 renal) | GI50 (A498 renal) [µM] | TGI (A498 renal) [µM] |
| --- | --- | --- | --- | --- | --- | --- | --- | --- | --- | --- | --- | --- | --- | --- | --- | --- | --- | --- | --- | --- |
| CC(=O)Nc1ccc2c(c1)oc(=O)c1cc(NC(C)=O)ccc12 | > 100 µM | > 100 µM | 96.5 µM | > 100 µM | > 100 µM | > 100 µM | > 100 µM | > 100 µM | > 100 µM | > 100 µM | > 100 µM | > 100 µM | > 100 | > 100 | > 100 µM | > 100 µM | > 100 µM | > 100 µM | > 100 | > 100 |
| COc1c(N2CCN(CN3C(=O)C(=Nc4ccc(S(=O)(=O)Nc5ncccn5)cc4)c4ccccc43)C(C)C2)c(F)cc2c(=O)c(C(=O)O)cn(C3CC3)c12 (stereo not given) | > 50 µM | > 50 µM | 20.2 µM | > 50 µM | 21.4 µM | > 50 µM | 7.71 µM | > 50 µM | 20 µM | > 50 µM | 6.51 µM | 31.3 µM | 32.1 | > 50 | > 50 µM | > 50 µM | 42.4 µM | > 50 µM | 0.833 | 14.2 |
| O=C(CCl)N1c2ccccc2Sc2c1ccc1ccccc21 | 1.82 µM | 3.27 µM | 1.73 µM | 3.15 µM | 2.13 µM | 5.48 µM | 2.45 µM | 7.78 µM | 17.4 µM | 32.9 µM | 4.37 µM | 15.1 µM | 2.21 | 5.26 | 1.86 µM | 3.26 µM | 1.85 µM | 3.43 µM | 12.9 | 25.9 |
| CCCCCCCCCCCCCCCCCCCCCC(=O)Nc1ccn(C2OC(CO)C(O)C2O)c(=O)n1 (stereo not given) |  | > 100 µM |  | > 100 µM |  | > 100 µM |  | > 100 µM |  | > 100 µM |  | > 100 µM |  | > 100 |  | > 100 µM |  | > 100 µM |  | > 100 |
| COc1cc([C@@H]2c3cc4c(cc3[C@@H](NC(=O)c3ccccc3)C3COC(=O)[C@@H]32)OCO4)cc(OC)c1O (stereo not given in full) |  | 21.9 µM |  | 14.1 µM |  | 37.7 µM |  | 38 µM |  | 57.3 µM |  | > 100 µM |  | 8.28 |  | 56.7 µM |  | 74.4 µM |  | 27 |
| CC1OC2CC(=O)OC2C2=C1C(=O)c1c(O)c3c(c(O)c1C2=O)C1CC(O)C3(O)C(C)O1 (stereo not given) | 0.635 µM | 1.78 µM | 1.23 µM | 2.5 µM | 0.271 µM | 3.5 µM | 1.59 µM | 3.64 µM | 0.701 µM | 2.26 µM | 1.94 µM | 5.84 µM | 0.974 | 3.18 | 0.207 µM | 0.629 µM | 1.2 µM | 2.51 µM | 1.65 | 3.42 |
| Cc1cc(C(C#N)c2ccc(Cl)cc2)c(Cl)cc1NC(=O)c1cc(I)cc(I)c1O (stereo not given) | 12.6 µM and 16.6 µM | 25.1 µM and 34.7 µM | 3.09 µM and 14.2 µM | 11 µM and 27.3 µM | 6.02 µM and 21.4 µM | > 100 µM and 52.1 µM | 12.3 µM and 6.96 µM | 41.5 µM and 25.6 µM | 7.82 µM and 14.9 µM | > 100 µM and 40 µM | 5.97 µM and 10.4 µM | 27.1 µM and 27.5 µM | 11.9 | 43.4 | 8.33 µM and 14.2 µM | 23.5 µM and 28.5 µM | 10.8 µM and 5.95 µM | 23.7 µM and 19.4 µM | 11.2 | 29.9 |
| C[C@H]1[C@H](C)CC[C@]2(C(=O)O)CC[C@]3(C)C(=CC[C@@H]4[C@@]5(C)C/C(=C/c6cccnc6)[C@H](O)C(C)(C)[C@@H]5CC[C@]43C)[C@H]12 | 25.9 µM | > 100 µM | 13.7 µM | 35.7 µM | 20.5 µM | > 100 µM | 28.6 µM | > 100 µM | 13.9 µM | 44.4 µM | 20.5 µM | > 100 µM | 15.3 | 56.8 | 13.5 µM | 31.1 µM | 13.7 µM | 36.6 µM | > 100 | > 100 |
